Columns and labels:
adipose cells of rats = experiment: Evaluation of the sugar transportation activity (2-[14C(U)]-deoxy-D-glucose incorporation); assay type: cell-based, Wistar rats; details: concentration with reinforcing effect of 50% of that of insulin (100 nM) = 100%; rat adipose cells, 30 min pre-culture at 37° C., 5 min uptake
Experimental: 1. Preparation of Adipose Cells of Rats:
After the decapitation and venesection of 6 male Wistar rats (body weight: 150 to 200 g), an incision was made in the abdomen of each rat to extract 6 g in total of epididymal adipose tissues. The tissues were finely cut into 2 mm×2 mm pieces in 6 ml of KRH (Krebs-Ringer Hepes, composition: 130 mM of sodium chloride, 4.7 mM of potassium chloride, 1.2 mM of potassium dihydrogenphosphate, 1.2 mM of magnesium sulfate, 1 mM of calcium chloride and 25 mM of Hepes, pH=7.6) containing 5% of BSA (bovine serum albumin). 24 mg of collagenase (type I) was added thereto and the digestion treatment was conducted for about 40 minutes to obtain about 6 ml of isolated adipose cells. The collagenase was removed by the buffer exchange. 2% BSA/KRH solution was added to the residue for the re-suspension to obtain 45 ml of an adipose cell suspension.
2. Evaluation of the Sugar Transportation Activity:
The sugar transportation activity of the compound (I) of the present invention was evaluated with reference to a method described in a literature [Annual Review of Biochemistry, Vol. 55, p. 1059 (1986)]. In the test, 200 μL of the adipose cell suspension was poured in each polystyrene test tube, 100 μL of the solution of the test substance (by dilution of 10 mg/mL dimethyl sulfoxide solution with KRH) was added thereto, and the obtained mixture was shaken and then cultured at 37° C. for 30 minutes. The sugar transportation activity was evaluated by measuring the quantity of 2-[^14C(U)]-deoxy-D-glucose incorporated per a unit time. Namely, 2-[^14C(U)]-deoxy-D-glucose was added to the adipose cell suspension after the pre-culture (the final concentration: 0.5 μCi/sample). 5 minutes after, cytochalasin B (final concentration: 10 μM) was added to the mixture to terminate the sugar transportation. After forming a dinonyl phthalate layer, the obtained mixture was centrifuged to separate the adipose cells from the buffer. The quantity of 2-[^14C(U)]-deoxy-D-glucose contained in the adipose cell layer was determined with a liquid scintillation counter to determine the quantity of the incorporated sugar. In this evaluation system, when insulin (100 nM) having the effect of reinforcing the sugar transportation was used, the effect was about 7 times as high as that obtained in the insulin-free control group.
The results of the evaluation of the sugar transportation activity obtained by using 100 μg/mL of the compound (I) of the present invention are shown in Table 3. The sugar transportation activity in Table 3 was evaluated on the basis of the reinforcing effect of insulin (100 nM). The sugar transportation activity A in Table 3 was determined in terms of the concentration (EC50: μg/mL) of a test compound, having a reinforcing effect corresponding to 50% on the basis of the reinforcing effect of insulin (100 nM) having a reinforcing effect of 100%.
The symbols in Table 3 are as follows: • No: Compound No. in Tables 1 and 2, and • A: sugar transportation activity.

GK rats = experiment: Combinational effect with insulin secretagogue (gliclazide) using GK rats (Example 2); assay type: in vivo; details: combined with gliclazide, compared with alone groups, same experiment as Example 1
Experimental: The compound (II) (100 mg/kg) was orally administered to C57BL/6NCrj mice (11 week age, male) and soon after that, gliclazide (3 mg/kg) was orally administered. After administration, the blood was taken from their caudal veins over time to determine the blood glucose level. Area under the curve of blood glucose level changes until 70 minutes after the administration was set as an index and variations from a control group (Vehicle administered group) were compared.
The same experiment is conducted as that of Example 1 except that the compounds of the Compound Nos. 6, 8, 62, 80, 81, 88, 91, […], 105, 106, 129, 130, 131 and 132 in Tables 1 and 2 are used instead of the compound (II), and GK rats are used instead of normal mice.

KK-Ay mice = experiment: Combinational effect with biguanide (metformin) using KK-Ay mice (Example 4); assay type: in vivo; details: combined with metformin, compared with alone groups, same experiment as Example 3
Experimental: The compound (III) (30 mg/kg) was orally administered to C57BL/KsJ-db/bdJcl mice (10 week age, male) and soon after that, metformin (100 mg/kg) was orally administered. 60 minutes after administration, the blood was taken from their caudal veins to determine the blood glucose level.
The same experiment is conducted as that of Example 3 except that the compounds of the Compound Nos. 6, 8, 62, 80, 81, 88, 91, 96, 105, 106, 129, 130, 131 and 132 in Tables 1 and 2 are used instead of the compound (III), and KK-Ay mice are used instead of db/bd mice.

C57BL/KsJ-db/bdJcl mice [1] = experiment: Combinational effect with glitazone (pioglitazone) using db/db mice, oral glucose load (Examples 5 and 6); assay type: in vivo; details: single oral administration combined with pioglitazone 10 mg/kg/day oral for 10 days, compared with alone groups
Experimental: The oral glucose load experiments are conducted using C57BL/KsJ-db/bdJcl mice in the conditions with or without the oral administeration of pioglitazone (10 mg/kg/day) for 10 days and with or without a single oral administration of the compound (III).
The same experiment is conducted as that of Example 5 except that the compounds of the Compound Nos. 6, 8, 62, 80, 81, 88, 91, 96, 105, 106, 129, 130, 131 and 132 in Tables 1 and 2 are used instead of the compound (III).

C57BL/KsJ-db/bdJcl mice [2] = experiment: Combinational effect with insulin using db/db mice (Examples 7 and 8); assay type: in vivo; details: combined with insulin 0.2 U/kg, compared with alone groups, same experiment as Example 3
Experimental: The compound (III) (30 mg/kg) was orally administered to C57BL/KsJ-db/bdJcl mice (10 week age, male) and soon after that, metformin (100 mg/kg) was orally administered. 60 minutes after administration, the blood was taken from their caudal veins to determine the blood glucose level. The same experiment is conducted as that of Example 3 except that insulin (0.2 U/kg) is used instead of metformin. […] The same experiment is conducted as that of Example 7 except that the compounds of the Compound Nos. 6, 8, 62, 80, 81, 88, 91, 96, 105, 106, 129, 130, 131 and 132 in Tables 1 and 2 are used instead of the compound (III).

## CCC(=O)N1[C@@H]2CCCC[C@H]2N(C)C2=C(C(=O)NC2)[C@H]1c1ccccc1C [Compound 91]
Adipose cells of rats
  A: sugar transportation activity (EC50): 0.45 µg/mL
GK rats
  hypoglycemic action (blood glucose level): remarkable hypoglycemic action
KK-Ay mice
  hypoglycemic action (blood glucose level): remarkable hypoglycemic action
C57BL/KsJ-db/bdJcl mice [1]
  hypoglycemic action (oral glucose load): remarkable hypoglycemic action
C57BL/KsJ-db/bdJcl mice [2]
  hypoglycemic action (blood glucose level): remarkable hypoglycemic action

## COc1ccccc1[C@@H]1C2=C(CNC2=O)N[C@@H]2CCCC[C@H]2N1C(=O)CO [Compound 8]
Adipose cells of rats
  A: sugar transportation activity (EC50): 2 µg/mL
GK rats
  hypoglycemic action (blood glucose level): remarkable hypoglycemic action
KK-Ay mice
  hypoglycemic action (blood glucose level): remarkable hypoglycemic action
C57BL/KsJ-db/bdJcl mice [1]
  hypoglycemic action (oral glucose load): remarkable hypoglycemic action
C57BL/KsJ-db/bdJcl mice [2]
  hypoglycemic action (blood glucose level): remarkable hypoglycemic action

## O=C1NCC2=C1[C@@H](c1ccccc1OC1CC1)N(C(=O)CO)[C@@H]1CCCC[C@H]1N2 [Compound 62]
Adipose cells of rats
  A: sugar transportation activity (EC50): 0.5 µg/mL
GK rats
  hypoglycemic action (blood glucose level): remarkable hypoglycemic action
KK-Ay mice
  hypoglycemic action (blood glucose level): remarkable hypoglycemic action
C57BL/KsJ-db/bdJcl mice [1]
  hypoglycemic action (oral glucose load): remarkable hypoglycemic action
C57BL/KsJ-db/bdJcl mice [2]
  hypoglycemic action (blood glucose level): remarkable hypoglycemic action

## CCC(=O)N1[C@@H]2CCCC[C@H]2NC2=C(C(=O)NC2)[C@H]1c1cccc(F)c1C [Compound 106]
Adipose cells of rats
  A: sugar transportation activity (EC50): 0.6 µg/mL
GK rats
  hypoglycemic action (blood glucose level): remarkable hypoglycemic action
KK-Ay mice
  hypoglycemic action (blood glucose level): remarkable hypoglycemic action
C57BL/KsJ-db/bdJcl mice [1]
  hypoglycemic action (oral glucose load): remarkable hypoglycemic action
C57BL/KsJ-db/bdJcl mice [2]
  hypoglycemic action (blood glucose level): remarkable hypoglycemic action

## CC(=O)N1[C@@H]2CCCC[C@H]2NC2=C(C(=O)NC2)[C@H]1c1ccccc1C1CC1 [Compound 105]
Adipose cells of rats
  A: sugar transportation activity (EC50): 0.5 µg/mL
GK rats
  hypoglycemic action (blood glucose level): remarkable hypoglycemic action
KK-Ay mice
  hypoglycemic action (blood glucose level): remarkable hypoglycemic action
C57BL/KsJ-db/bdJcl mice [1]
  hypoglycemic action (oral glucose load): remarkable hypoglycemic action
C57BL/KsJ-db/bdJcl mice [2]
  hypoglycemic action (blood glucose level): remarkable hypoglycemic action

## CSc1ccccc1[C@@H]1C2=C(CNC2=O)N[C@@H]2CCCC[C@H]2N1C(=O)CO [Compound 81]
Adipose cells of rats
  A: sugar transportation activity (EC50): 2 µg/mL
GK rats
  hypoglycemic action (blood glucose level): remarkable hypoglycemic action
KK-Ay mice
  hypoglycemic action (blood glucose level): remarkable hypoglycemic action
C57BL/KsJ-db/bdJcl mice [1]
  hypoglycemic action (oral glucose load): remarkable hypoglycemic action
C57BL/KsJ-db/bdJcl mice [2]
  hypoglycemic action (blood glucose level): remarkable hypoglycemic action

## CCC(=O)N1[C@@H]2CCCC[C@H]2NC2=C(C(=O)NC2)[C@H]1c1ccccc1 [Compound 130]
Adipose cells of rats
  A: sugar transportation activity (EC50): 1.5 µg/mL
GK rats
  hypoglycemic action (blood glucose level): remarkable hypoglycemic action
KK-Ay mice
  hypoglycemic action (blood glucose level): remarkable hypoglycemic action
C57BL/KsJ-db/bdJcl mice [1]
  hypoglycemic action (oral glucose load): remarkable hypoglycemic action
C57BL/KsJ-db/bdJcl mice [2]
  hypoglycemic action (blood glucose level): remarkable hypoglycemic action

## COc1ccccc1[C@@H]1C2=C(CNC2=O)N[C@@H]2CCCC[C@H]2N1C(=O)CC(F)(F)F [Compound 6]
Adipose cells of rats
  A: sugar transportation activity (EC50): 0.47 µg/mL
GK rats
  hypoglycemic action (blood glucose level): remarkable hypoglycemic action
KK-Ay mice
  hypoglycemic action (blood glucose level): remarkable hypoglycemic action
C57BL/KsJ-db/bdJcl mice [1]
  hypoglycemic action (oral glucose load): remarkable hypoglycemic action
C57BL/KsJ-db/bdJcl mice [2]
  hypoglycemic action (blood glucose level): remarkable hypoglycemic action

## CCOCC(=O)N1[C@@H]2CCCC[C@H]2NC2=C(C(=O)NC2)[C@H]1c1ccccc1 [Compound 132]
Adipose cells of rats
  A: sugar transportation activity (EC50): 2.7 µg/mL
GK rats
  hypoglycemic action (blood glucose level): remarkable hypoglycemic action
KK-Ay mice
  hypoglycemic action (blood glucose level): remarkable hypoglycemic action
C57BL/KsJ-db/bdJcl mice [1]
  hypoglycemic action (oral glucose load): remarkable hypoglycemic action
C57BL/KsJ-db/bdJcl mice [2]
  hypoglycemic action (blood glucose level): remarkable hypoglycemic action

## O=C1NCC2=C1[C@@H](c1ccccc1)N(C(=O)CO)[C@@H]1CCCC[C@H]1N2 [Compound 131]
Adipose cells of rats
  A: sugar transportation activity (EC50): 1.5 µg/mL
GK rats
  hypoglycemic action (blood glucose level): remarkable hypoglycemic action
KK-Ay mice
  hypoglycemic action (blood glucose level): remarkable hypoglycemic action
C57BL/KsJ-db/bdJcl mice [1]
  hypoglycemic action (oral glucose load): remarkable hypoglycemic action
C57BL/KsJ-db/bdJcl mice [2]
  hypoglycemic action (blood glucose level): remarkable hypoglycemic action

## CSc1ccccc1[C@@H]1C2=C(CNC2=O)N[C@@H]2CCCC[C@H]2N1C(C)=O [Compound 80]
Adipose cells of rats
  A: sugar transportation activity (EC50): 5 µg/mL
GK rats
  hypoglycemic action (blood glucose level): remarkable hypoglycemic action
KK-Ay mice
  hypoglycemic action (blood glucose level): remarkable hypoglycemic action
C57BL/KsJ-db/bdJcl mice [1]
  hypoglycemic action (oral glucose load): remarkable hypoglycemic action
C57BL/KsJ-db/bdJcl mice [2]
  hypoglycemic action (blood glucose level): remarkable hypoglycemic action

## CC(=O)N1[C@@H]2CCCC[C@H]2NC2=C(C(=O)NC2)[C@H]1c1ccccc1C [Compound 88]
Adipose cells of rats
  A: sugar transportation activity (EC50): 5 µg/mL
GK rats
  hypoglycemic action (blood glucose level): remarkable hypoglycemic action
KK-Ay mice
  hypoglycemic action (blood glucose level): remarkable hypoglycemic action
C57BL/KsJ-db/bdJcl mice [1]
  hypoglycemic action (oral glucose load): remarkable hypoglycemic action
C57BL/KsJ-db/bdJcl mice [2]
  hypoglycemic action (blood glucose level): remarkable hypoglycemic action

## CC(=O)N1[C@@H]2CCCC[C@H]2NC2=C(C(=O)NC2)[C@H]1c1ccccc1 [Compound 129]
GK rats
  hypoglycemic action (blood glucose level): remarkable hypoglycemic action
KK-Ay mice
  hypoglycemic action (blood glucose level): remarkable hypoglycemic action
C57BL/KsJ-db/bdJcl mice [1]
  hypoglycemic action (oral glucose load): remarkable hypoglycemic action
C57BL/KsJ-db/bdJcl mice [2]
  hypoglycemic action (blood glucose level): remarkable hypoglycemic action

— US7807663B2, “Therapeutic agents for diabetes” (Ajinomoto Co., Inc., priority 2003, dated 2010)
